± gives the standard deviation of the averaged measurements.
Key:
[1] = tested on: HSC2 (primary human Schwann cells); assay: % inhibition of CellTiter-Glo viability at highest tested concentration (72 h), relative to DMSO and benzethonium chloride controls; higher = more inhibition
Summary of the method: (§1)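 Viability of MPNST cell lines and primary human Schwann cells was read as CellTiter-Glo ATP luminescence after 72 h at 37 °C, 5% CO2, in 384-well plates seeded with 750–1000 cells per well. Each compound had been preprinted at five concentrations in 10-fold steps. Signals were scaled between vehicle and positive-control wells, duplicates averaged where present, and fitted with four-parameter logistic curves. Drug sensitivity score and relative IC50 (censored at the top concentration) come from those fits, and percent inhibition is taken at the top concentration.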

[2] = tested on: HSC1 (primary human Schwann cells); assay: as above
Summary of the method: as §1

[3] = tested on: YST-1; assay: as above
Summary of the method: as §1

[4] = tested on: STS26T; assay: as above
Summary of the method: as §1

[5] = tested on: ST8814; assay: as above
Summary of the method: as §1

[6] = tested on: HS-PSS; assay: as above
Summary of the method: as §1

[7] = tested on: HS-Sch-2; assay: as above
Summary of the method: as §1

[8] = tested on: S1507-2; assay: as above
Summary of the method: as §1

[9] = tested on: S462; assay: as above
Summary of the method: as §1

[10] = tested on: HSC2 (primary human Schwann cells); assay: drug sensitivity score (DSS, CellTox-Green cytotoxicity, 72 h) (DSS (dimensionless)); higher = more cytotoxic; extreme values may be limits of the assay
Summary of the method: (§2)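 MPNST cell lines and primary human Schwann cells were grown for 72 h at 37 °C in 384-well plates containing five 10-fold compound dilutions. CellTox-Green, added before seeding at a final 1:1000 dilution, gave fluorescence from DNA released by disrupted cells, and signals were scaled to vehicle and positive-control wells. Curves were fitted with a four-parameter logistic model. Drug sensitivity score and relative IC50 come from these fits, with IC50 censored at the top concentration.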

[11] = tested on: HSC1 (primary human Schwann cells); assay: as above
Summary of the method: as §2

[12] = tested on: STS26T; assay: as above
Summary of the method: as §2

[13] = tested on: ST8814; assay: as above
Summary of the method: as §2

[14] = tested on: HS-PSS; assay: as above
Summary of the method: as §2

[15] = tested on: S1507-2; assay: as above
Summary of the method: as §2

[16] = tested on: HSC2 (primary human Schwann cells); assay: drug sensitivity score (DSS, CellTiter-Glo viability, 72 h) (DSS (dimensionless)); higher = more sensitive; extreme values may be limits of the assay
Summary of the method: as §1

[17] = tested on: HSC1 (primary human Schwann cells); assay: as above
Summary of the method: as §1

[18] = tested on: YST-1; assay: as above
Summary of the method: as §1

[19] = tested on: STS26T; assay: as above
Summary of the method: as §1

[20] = tested on: ST8814; assay: as above
Summary of the method: as §1

[21] = tested on: HS-PSS; assay: as above
Summary of the method: as §1

[22] = tested on: HS-Sch-2; assay: as above
Summary of the method: as §1

[23] = tested on: S1507-2; assay: as above
Summary of the method: as §1

[24] = tested on: S462; assay: as above
Summary of the method: as §1

Structure (SMILES): c1ccc2c(CCNc3ccc(Nc4ccncc4)cc3)c[nH]c2c1 [Serdemetan] (max concentration tested 10000 nM)
- % inhibition [1]: 70.3%
- % inhibition [2]: 65.5%
- % inhibition [3]: 92.5%
- % inhibition [4]: 78.5%
- % inhibition [5]: 99.5%
- % inhibition [6]: 95.3%
- % inhibition [7]: 96.2%
- % inhibition [8]: 93.39 ± 0.52%
- % inhibition [9]: 100.5 ± 0.77%
- drug sensitivity score [10]: 0
- drug sensitivity score [11]: 0.111
- drug sensitivity score [12]: 3.19
- drug sensitivity score [13]: 12.5
- drug sensitivity score [14]: 3.27
- drug sensitivity score [15]: 4.77 ± 0.64
- drug sensitivity score [16]: 7.15
- drug sensitivity score [17]: 6.36
- drug sensitivity score [18]: 11.6
- drug sensitivity score [19]: 5.45
- drug sensitivity score [20]: 12.2
- drug sensitivity score [21]: 6.09
- drug sensitivity score [22]: 4.57
- drug sensitivity score [23]: 8.56 ± 0.85
- drug sensitivity score [24]: 10.8 ± 0.46

Structure (SMILES): CCN(CC)CCOc1ccc(/C(=C(/Cl)c2ccccc2)c2ccccc2)cc1 [Clomifene] (max concentration tested 10000 nM)
- % inhibition [1]: 91.5%
- % inhibition [2]: 25.9%
- % inhibition [3]: 44.2%
- % inhibition [4]: 92.4%
- % inhibition [5]: 96.9%
- % inhibition [6]: 87.8%
- % inhibition [7]: 98.5%
- % inhibition [8]: 95.46 ± 0.71%
- % inhibition [9]: 77.6 ± 2.6%
- drug sensitivity score [10]: 7.92
- drug sensitivity score [11]: 0
- drug sensitivity score [12]: 6.15
- drug sensitivity score [13]: 6.68
- drug sensitivity score [14]: 5.71
- drug sensitivity score [15]: 4.48 ± 1.9
- drug sensitivity score [16]: 6.36
- drug sensitivity score [17]: 2.36
- drug sensitivity score [18]: 1.77
- drug sensitivity score [19]: 6.27
- drug sensitivity score [20]: 6.53
- drug sensitivity score [21]: 6.39
- drug sensitivity score [22]: 5.21
- drug sensitivity score [23]: 6.57 ± 0.14
- drug sensitivity score [24]: 5.36 ± 0.27

Structure (SMILES): NC(=O)Nc1cc(-c2cccc(F)c2)sc1C(=O)N[C@H]1CCCNC1 [AZD7762] (max concentration tested 1000 nM)
- % inhibition [1]: 70.2%
- % inhibition [2]: 72.8%
- % inhibition [3]: 71.9%
- % inhibition [4]: 90.7%
- % inhibition [5]: 86.2%
- % inhibition [6]: 61.9%
- % inhibition [7]: 90.7%
- % inhibition [8]: 80.47 ± 0.4%
- % inhibition [9]: 98.22 ± 0.35%
- drug sensitivity score [10]: 5.55
- drug sensitivity score [11]: 3.66
- drug sensitivity score [12]: 9.01
- drug sensitivity score [13]: 5.42
- drug sensitivity score [14]: 0.32
- drug sensitivity score [15]: 3.7 ± 0.91
- drug sensitivity score [16]: 3.95
- drug sensitivity score [17]: 6.7
- drug sensitivity score [18]: 4.02
- drug sensitivity score [19]: 9.05
- drug sensitivity score [20]: 8.3
- drug sensitivity score [21]: 4.8
- drug sensitivity score [22]: 12.7
- drug sensitivity score [23]: 10.9 ± 0.13
- drug sensitivity score [24]: 14.7 ± 0.2

Structure (SMILES): N#Cc1ccc(C(c2ccc(C#N)cc2)n2cncn2)cc1 [Letrozole] (max concentration tested 10000 nM)
- % inhibition [1]: 3.35%
- % inhibition [2]: 1.16%
- % inhibition [3]: 7.25%
- % inhibition [4]: 3.15%
- % inhibition [5]: -5.31%
- % inhibition [6]: 10.6%
- % inhibition [7]: 14.7%
- % inhibition [8]: -4.25 ± 4.2%
- % inhibition [9]: -4.84 ± 2.2%
- drug sensitivity score [10]: 0
- drug sensitivity score [11]: 0
- drug sensitivity score [12]: 0
- drug sensitivity score [13]: 0
- drug sensitivity score [14]: 0
- drug sensitivity score [15]: 0
- drug sensitivity score [16]: 0
- drug sensitivity score [17]: 0
- drug sensitivity score [18]: 0
- drug sensitivity score [19]: 0
- drug sensitivity score [20]: 0
- drug sensitivity score [21]: 0
- drug sensitivity score [22]: 0.34
- drug sensitivity score [23]: 0
- drug sensitivity score [24]: 0

Structure (SMILES): Cc1nc(Nc2ncc(C(=O)Nc3c(C)cccc3Cl)s2)cc(N2CCN(CCO)CC2)n1 [Dasatinib] (max concentration tested 1000 nM)
- % inhibition [1]: 49.2%
- % inhibition [2]: 60%
- % inhibition [3]: 20.6%
- % inhibition [4]: 64.8%
- % inhibition [5]: 65.5%
- % inhibition [6]: 19.3%
- % inhibition [7]: 58.5%
- % inhibition [8]: 82.6 ± 2.6%
- % inhibition [9]: 30.9 ± 1.7%
- drug sensitivity score [10]: 0
- drug sensitivity score [11]: 0
- drug sensitivity score [12]: 3.95
- drug sensitivity score [13]: 4.56
- drug sensitivity score [14]: 0
- drug sensitivity score [15]: 1.53 ± 1.1
- drug sensitivity score [16]: 5.78
- drug sensitivity score [17]: 8.49
- drug sensitivity score [18]: 4.94
- drug sensitivity score [19]: 11.7
- drug sensitivity score [20]: 10.2
- drug sensitivity score [21]: 0.97
- drug sensitivity score [22]: 7.09
- drug sensitivity score [23]: 12.3 ± 1.8
- drug sensitivity score [24]: 4.46 ± 0.87

Structure (SMILES): O=C(/C=C/c1cccc(S(=O)(=O)Nc2ccccc2)c1)NO [Belinostat] (max concentration tested 10000 nM)
- % inhibition [1]: 101%
- % inhibition [2]: 102%
- % inhibition [3]: 101%
- % inhibition [4]: 98.9%
- % inhibition [5]: 102%
- % inhibition [6]: 88.1%
- % inhibition [7]: 101%
- % inhibition [8]: 104 ± 1.3%
- % inhibition [9]: 102.5 ± 0.29%
- drug sensitivity score [10]: 8.85
- drug sensitivity score [11]: 8.65
- drug sensitivity score [12]: 12.7
- drug sensitivity score [13]: 12.4
- drug sensitivity score [14]: 4.69
- drug sensitivity score [15]: 12.2 ± 2
- drug sensitivity score [16]: 13.2
- drug sensitivity score [17]: 15.4
- drug sensitivity score [18]: 18.1
- drug sensitivity score [19]: 13
- drug sensitivity score [20]: 17.2
- drug sensitivity score [21]: 10.8
- drug sensitivity score [22]: 13.7
- drug sensitivity score [23]: 16.6 ± 0.76
- drug sensitivity score [24]: 12.7 ± 0.28

Structure (SMILES): CN1CC[C@H](c2c(O)cc(O)c3c(=O)cc(-c4ccccc4Cl)oc23)[C@H](O)C1 [Alvocidib] (max concentration tested 10000 nM)
- % inhibition [1]: 89.1%
- % inhibition [2]: 85.4%
- % inhibition [3]: 97.8%
- % inhibition [4]: 95.8%
- % inhibition [5]: 79.8%
- % inhibition [6]: 83.7%
- % inhibition [7]: 101%
- % inhibition [8]: 81.118 ± 0.0062%
- % inhibition [9]: 99.41 ± 0.97%
- drug sensitivity score [10]: 11.7
- drug sensitivity score [11]: 8.24
- drug sensitivity score [12]: 10.1
- drug sensitivity score [13]: 4.45
- drug sensitivity score [14]: 4.23
- drug sensitivity score [15]: 2.61 ± 3.7
- drug sensitivity score [16]: 17.9
- drug sensitivity score [17]: 18
- drug sensitivity score [18]: 20.5
- drug sensitivity score [19]: 20.1
- drug sensitivity score [20]: 17.8
- drug sensitivity score [21]: 20.4
- drug sensitivity score [22]: 20.6
- drug sensitivity score [23]: 15.5 ± 0.93
- drug sensitivity score [24]: 21.1 ± 0.91
